Test results published in patent publication US11932624B2, “MDM2 degraders and uses thereof” (Kymera Therapeutics, Inc., priority 2020, dated 2024).

Tested on: RS411 cells
Test: Cell Viability CTG Assay (CellTiter Glo) in RS411 cells
Type: cell-based
Details: Homo sapiens, RS4-11, 24 h, duration 1 day
Method in brief: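 RS411 cells at 1000 cells/well were exposed to compound (top final 10 μM, 3-fold, 11 doses; 0.2% DMSO) at 37 °C, 5% CO2 for 1-4 days. Viability was read by CellTiter Glo luminescence after 10 min at RT. IC50 is reported as letter-code bins.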

| SMILES | IC50 [nM] |
| --- | --- |
| Cn1c(=O)n(C2CCC(=O)NC2=O)c2ccc(CCCCCNC(=O)c3ccc(NC(=O)[C@@H]4NC5(CCCCC5)[C@@]5(C(=O)Nc6cc(Cl)ccc65)[C@H]4c4cccc(Cl)c4F)c4c3OCCO4)cc21 (stereo partly drawn) [I-163] | < 50 |
| CC1(C)CCC2(CC1)N[C@@H](C(=O)N[C@H]1CC[C@H](CN3CCC(C#Cc4ccn5c(N6CCC(=O)NC6=O)cnc5c4)CC3)CC1)[C@H](c1ccnc(Cl)c1F)[C@]21C(=O)Nc2cc(Cl)ccc21 [I-164] | < 50 |
| Cn1c(=O)n(C2CCC(=O)NC2=O)c2ccc(CCC3CCN(C(=O)c4coc([C@@H]5NC6(CCCCC6)[C@@]6(C(=O)Nc7cc(Cl)ccc76)[C@H]5c5cccc(Cl)c5F)n4)CC3)cc21 (stereo partly drawn) [I-165] | > 1000 |
| CC(C)[C@@H](CS(=O)(=O)C(C)C)N1C(=O)[C@@](C)(CC(=O)N[C@H]2CC[C@H](CN3CCC(C#Cc4ccn5c(N6CCC(=O)NC6=O)cnc5c4)CC3)CC2)C[C@H](c2cccc(Cl)c2)[C@H]1c1ccc(Cl)cc1 [I-166] | 500 to 1000 |
| CC(C)(C)C[C@@H]1N[C@@H](C(=O)N[C@H]2CC[C@H](CN3CCC(C#Cc4cccn5c(N6CCC(=O)NC6=O)cnc45)CC3)CC2)[C@H](c2cccc(Cl)c2F)[C@@]1(C#N)c1ccc(Cl)cc1F [I-167] | > 1000 |
| COc1cc2c(cc1OC(C)C)C(c1ccc(Cl)cc1)N(c1ccc(N(C)C[C@H]3CC[C@H](N(C)C(=O)CCCCc4ccc5c(c4)n(C)c(=O)n5C4CCC(=O)NC4=O)CC3)cc1)C(=O)C2 (stereo partly drawn) [I-168] | < 50 |
| Cn1c(=O)n(C2CCC(=O)NC2=O)c2ccc(C#CCCN3CCC(NC(=O)[C@@H]4NC5(CCCCC5)[C@@]5(C(=O)Nc6cc(Cl)ccc65)[C@H]4c4cccc(Cl)c4F)CC3)cc21 (stereo partly drawn) [I-169] | > 1000 |
| CC(C)[C@@H](CS(=O)(=O)C(C)C)N1C(=O)[C@@](C)(CC(=O)N[C@H]2CC[C@H](CN3CCC(C#Cc4cccn5c(N6CCC(=O)NC6=O)cnc45)CC3)CC2)C[C@H](c2cccc(Cl)c2)[C@H]1c1ccc(Cl)cc1 [I-170] | 100 to 500 |
| Cn1c(=O)n(C2CCC(=O)NC2=O)c2ccc(CC[C@H]3CC[C@H](N4CCC(NC(=O)[C@@H]5NC6(CCCCC6)[C@@]6(C(=O)Nc7cc(Cl)ccc76)[C@H]5c5cccc(Cl)c5F)CC4)CC3)cc21 (stereo partly drawn) [I-171] | < 50 |
| Cn1c(=O)n(C2CCC(=O)NC2=O)c2ccc(CCCCCOC3CCN(C(=O)c4coc([C@@H]5NC6(CCCCC6)[C@@]6(C(=O)Nc7cc(Cl)ccc76)[C@H]5c5cccc(Cl)c5F)n4)CC3)cc21 (stereo partly drawn) [I-172] | > 1000 |
| Cn1c(=O)n(C2CCC(=O)NC2=O)c2ccc(C3CCN(C(=O)[C@H]4CC[C@H](NC(=O)[C@@H]5NC6(CCCCC6)[C@@]6(C(=O)Nc7cc(Cl)ccc76)[C@H]5c5cccc(Cl)c5F)CC4)CC3)cc21 (stereo partly drawn) [I-174] | < 50 |
| COc1cc2c(cc1OC(C)C)C(c1ccc(Cl)cc1)N(c1ccc(N(C)C[C@H]3CC[C@H](N(C)CCOCCOCC(=O)N[C@H](C(=O)N4C[C@H](O)C[C@H]4C(=O)NCc4ccc(-c5scnc5C)cc4)C(C)(C)C)CC3)cc1)C(=O)C2 (stereo partly drawn) [I-175] | > 1000 |
| Cn1c(=O)n(C2CCC(=O)NC2=O)c2ccc(C3CCN(C(=O)c4ccc(NC(=O)[C@@H]5NC6(CCCCC6)[C@@]6(C(=O)Nc7cc(Cl)ccc76)[C@H]5c5cccc(Cl)c5F)cc4)CC3)cc21 (stereo partly drawn) [I-176] | < 50 |
| Cn1c(=O)n(C2CCC(=O)NC2=O)c2ccc(C3CCN(C(=O)[C@H]4CC[C@H](NC(=O)[C@@H]5NC6(CCC(C)(C)CC6)[C@@]6(C(=O)Nc7cc(Cl)ccc76)[C@H]5c5ccnc(Cl)c5F)CC4)CC3)cc21 (stereo partly drawn) [I-177] | < 50 |
| Cn1c(=O)n(C2CCC(=O)NC2=O)c2ccc(N3CCN(C(=O)[C@H]4CC[C@H](NC(=O)[C@@H]5NC6(CCCCC6)[C@@]6(C(=O)Nc7cc(Cl)ccc76)[C@H]5c5cccc(Cl)c5F)CC4)CC3)cc21 (stereo partly drawn) [I-178] | < 50 |
| COc1cc2c(cc1OC(C)C)[C@H](c1ccc(Cl)cc1)N(c1ccc(N(C)CC3CCN(C(=O)CCCCCc4ccc5c(c4)n(C)c(=O)n5C4CCC(=O)NC4=O)CC3)cc1)C(=O)C2 (stereo partly drawn) [I-179] | < 50 |
| Cn1c(=O)n(C2CCC(=O)NC2=O)c2ccc(CCN3CCN(C(=O)[C@H]4CC[C@H](NC(=O)[C@@H]5NC6(CCCCC6)[C@@]6(C(=O)Nc7cc(Cl)ccc76)[C@H]5c5cccc(Cl)c5F)CC4)CC3)cc21 (stereo partly drawn) [I-180] | < 50 |
| COc1cc2c(cc1OC(C)C)[C@H](c1ccc(Cl)cc1)N(c1ccc(N(C)CC3CCN(C(=O)Cc4ccc5c(c4)n(C)c(=O)n5C4CCC(=O)NC4=O)CC3)cc1)C(=O)C2 (stereo partly drawn) [I-181] | > 1000 |
| COc1cc2c(cc1OC(C)C)[C@H](c1ccc(Cl)cc1)N(c1ccc(N(C)CC3CCN(C(=O)CCCc4ccc5c(c4)n(C)c(=O)n5C4CCC(=O)NC4=O)CC3)cc1)C(=O)C2 (stereo partly drawn) [I-182] | < 50 |
| Cn1c(=O)n(C2CCC(=O)NC2=O)c2ccc(CN3CCN(C(=O)[C@H]4CC[C@H](NC(=O)C5NC6(CCCCC6)[C@@]6(C(=O)Nc7cc(Cl)ccc76)[C@H]5c5cccc(Cl)c5F)CC4)CC3)cc21 (stereo partly drawn) [I-183] | < 50 |
| O=C1CCN(c2cnc3cc(NCCCCCNC[C@H]4CC[C@H](NC(=O)[C@@H]5NC6(CCCCC6)[C@@]6(C(=O)Nc7cc(Cl)ccc76)[C@H]5c5cccc(Cl)c5F)CC4)ccn23)C(=O)N1 [I-184] | 50 to 100 |

| SMILES | IC50 [nM] |
| --- | --- |
| Cc1ccc2c(c1C1CCN(C[C@H]3CC[C@H](NC(=O)[C@@H]4NC5(CCCCC5)[C@@]5(C(=O)Nc6cc(Cl)ccc65)[C@H]4c4cccc(Cl)c4F)CC3)CC1)n(C)c(=O)n2C1CCC(=O)NC1=O (stereo partly drawn) [I-185] | < 50 |
| Cn1c(=O)n(C2CCC(=O)NC2=O)c2ccc(C3CCN(C[C@H]4CC[C@H](NC(=O)[C@@H]5NC6(CCCCC6)[C@@]6(C(=O)Nc7cc(Cl)ccc76)[C@H]5c5cccc(Cl)c5F)CC4)CC3)cc21 (stereo partly drawn) [I-186] | < 50 |
| COc1ccc2c(c1C1CCN(C[C@H]3CC[C@H](NC(=O)[C@@H]4NC5(CCCCC5)[C@@]5(C(=O)Nc6cc(Cl)ccc65)[C@H]4c4cccc(Cl)c4F)CC3)CC1)n(C)c(=O)n2C1CCC(=O)NC1=O (stereo partly drawn) [I-187] | < 50 |
| Cc1ncsc1-c1ccc(CNC(=O)[C@@H]2C[C@@H](O)CN2C(=O)[C@@H](NC(=O)COCCOCC2CCN(C[C@H]3CC[C@H](NC(=O)[C@@H]4NC5(CCCCC5)[C@@]5(C(=O)Nc6cc(Cl)ccc65)[C@H]4c4cccc(Cl)c4F)CC3)CC2)C(C)(C)C)cc1 [I-188] | > 1000 |
| Cn1c(=O)n(C2CCC(=O)NC2=O)c2ccc(CCCCCN3CCc4cc(NC(=O)[C@@H]5NC6(CCCCC6)[C@@]6(C(=O)Nc7cc(Cl)ccc76)[C@H]5c5cccc(Cl)c5F)ccc4C3)cc21 (stereo partly drawn) [I-189] | < 50 |
| COc1cc2c(cc1OC(C)C)C(c1ccc(Cl)cc1)N(c1ccc(N(C)C[C@H]3CC[C@H](N4CCN(CCCCCc5cccc6c5n(C)c(=O)n6C5CCC(=O)NC5=O)C(=O)C4)CC3)cc1)C(=O)C2 (stereo partly drawn) [I-192] | < 50 |
| COc1cc2c(cc1OC(C)C)C(c1ccc(Cl)cc1)N(c1ccc(N(C)C[C@H]3CC[C@H](N4CCN(CCCCCc5ccc6c(c5)n(C)c(=O)n6C5CCC(=O)NC5=O)C(=O)C4)CC3)cc1)C(=O)C2 (stereo partly drawn) [I-193] | < 50 |
| COc1cc2c(cc1OC(C)C)C(c1ccc(Cl)cc1)N(c1ccc(N(C)C[C@H]3CC[C@H](N4CCC(CCc5ccc6c(c5)n(C)c(=O)n6C5CCC(=O)NC5=O)CC4)CC3)cc1)C(=O)C2 (stereo partly drawn) [I-194] | < 50 |
| COc1cc2c(cc1OC(C)C)C(c1ccc(Cl)cc1)N(c1ccc(N(C)C[C@H]3CC[C@H](N(C)CCc4ccc5c(c4)n(C)c(=O)n5C4CCC(=O)NC4=O)CC3)cc1)C(=O)C2 (stereo partly drawn) [I-195] | > 1000 |
| Cn1c(=O)n(C2CCC(=O)NC2=O)c2ccc(CCN3CCN(C[C@H]4CC[C@H](NC(=O)[C@@H]5NC6(CCC(C)(C)CC6)[C@@]6(C(=O)Nc7cc(Cl)ccc76)[C@H]5c5ccnc(Cl)c5F)CC4)CC3)cc21 (stereo partly drawn) [I-196] | < 50 |
| COc1cc2c(cc1OC(C)C)[C@@H](c1ccc(Cl)cc1)N(c1ccc(N(C)CC3CCN(CCCCCCc4ccc5c(c4)n(C)c(=O)n5C4CCC(=O)NC4=O)CC3)cc1)C(=O)C2 (stereo partly drawn) [I-197] | > 1000 |
| Cn1c(=O)n(C2CCC(=O)NC2=O)c2ccc(C#CCCN3CCN(C[C@H]4CC[C@H](NC(=O)[C@@H]5NC6(CCC(C)(C)CC6)[C@@]6(C(=O)Nc7cc(Cl)ccc76)[C@H]5c5ccnc(Cl)c5F)CC4)CC3)cc21 (stereo partly drawn) [I-198] | < 50 |
| CC(C)(C)C[C@@H]1N[C@@H](C(=O)N[C@H]2CC[C@H](CNCCCC#Cc3ccc4c(N5CCC(=O)NC5=O)cncc4c3)CC2)[C@H](c2cccc(Cl)c2F)[C@@]1(C#N)c1ccc(Cl)cc1F [I-199] | > 1000 |
| COc1cc2c(cc1OC(C)C)[C@H](c1ccc(Cl)cc1)N(c1ccc(N(C)CC3CCN(CCCCCCc4ccc5c(c4)n(C)c(=O)n5C4CCC(=O)NC4=O)CC3)cc1)C(=O)C2 (stereo partly drawn) [I-201] | < 50 |
| CC(C)(C)C[C@@H]1N[C@@H](C(=O)N[C@H]2CC[C@H](CNCCCC#Cc3cccn4c(N5CCC(=O)NC5=O)cnc34)CC2)[C@H](c2cccc(Cl)c2F)[C@@]1(C#N)c1ccc(Cl)cc1F [I-202] | > 1000 |
| CC1(C)CCC2(CC1)NC(C(=O)N[C@H]1CC[C@H](CN3CCN(CCC#Cc4cccn5c(N6CCC(=O)NC6=O)cnc45)CC3)CC1)[C@H](c1ccnc(Cl)c1F)[C@]21C(=O)Nc2cc(Cl)ccc21 (stereo partly drawn) [I-203] | < 50 |
| Cn1c(=O)n(C2CCC(=O)NC2=O)c2ccc(N3CCN(C[C@H]4CC[C@H](NC(=O)[C@@H]5NC6(CCC(C)(C)CC6)[C@@]6(C(=O)Nc7cc(Cl)ccc76)[C@H]5c5ccnc(Cl)c5F)CC4)CC3)cc21 (stereo partly drawn) [I-204] | < 50 |
| Cn1c(=O)n(C2CCC(=O)NC2=O)c2ccc(CN3CCN(C[C@H]4CC[C@H](NC(=O)[C@@H]5NC6(CCC(C)(C)CC6)[C@@]6(C(=O)Nc7cc(Cl)ccc76)[C@H]5c5ccnc(Cl)c5F)CC4)CC3)cc21 (stereo partly drawn) [I-205] | < 50 |
| COc1cc2c(cc1OC(C)C)C(c1ccc(Cl)cc1)N(c1ccc(N(C)C[C@H]3CC[C@H](N(C)CCCC#Cc4c(OC)ccc5c4n(C)c(=O)n5C4CCC(=O)NC4=O)CC3)cc1)C(=O)C2 (stereo partly drawn) [I-206] | < 50 |
| Cn1c(=O)n(C2CCC(=O)NC2=O)c2ccc(N3CCN(C[C@H]4CC[C@H](NC(=O)[C@@H]5NC6(CCCCC6)[C@@]6(C(=O)Nc7cc(Cl)ccc76)[C@H]5c5cccc(Cl)c5F)CC4)CC3)cc21 (stereo partly drawn) [I-207] | < 50 |
| COc1cc2c(cc1OC(C)C)C(c1ccc(Cl)cc1)N(c1ccc(N(C)CCCCCCCc3ccc4c(c3)n(C)c(=O)n4C3CCC(=O)NC3=O)cc1)C(=O)C2 (stereo not drawn) [I-208] | > 1000 |
